From ChEMBL document CHEMBL3272022, “Analogs of luteinizing hormone-releasing hormone with increased biological activity produced by D-amino acid substitutions in position 6” (1976)

Assays:
Rattus norvegicus [1] = assay: Induction of luteinizing hormone release in immature male rat at 100 ng, sc measured after 15 mins to 6 hrs post dose by RIA relative to LH-RH
Rattus norvegicus [2] = assay: Induction of FSH release in immature male rat at 100 ng, sc measured after 15 mins to 6 hrs post dose by RIA relative to LH-RH
Rattus norvegicus [3] = assay: Induction of luteinizing hormone release in ovariectomized estrogen/progesterone-treated rat at 50 ng, sc measured at 30 mins post dose by RIA (reference value: 5.3 +/- 1.5 ng/ml); format: functional
Rattus norvegicus [4] = assay: Induction of luteinizing hormone release in ovariectomized estrogen/progesterone-treated rat at 10 ng, sc measured at 30 mins post dose by RIA (reference value: 5.3 +/- 1.5 ng/ml); format: functional
Rattus norvegicus [5] = assay: Induction of luteinizing hormone release in ovariectomized estrogen/progesterone-treated rat at 50 ng, sc measured at 60 mins post dose by RIA (reference value: 6.0+/- 0.4 ng/ml); format: functional
Rattus norvegicus [6] = assay: Induction of luteinizing hormone release in ovariectomized estrogen/progesterone-treated rat at 10 ng, sc measured at 60 mins post dose by RIA (reference value: 6.0+/- 0.4 ng/ml); format: functional
Rattus norvegicus [7] = assay: Induction of luteinizing hormone release in ovariectomized estrogen/progesterone-treated rat at 100 ng, sc measured after 30 mins post dose by RIA relative to LH-RH; format: functional
Rattus norvegicus [8] = assay: Induction of luteinizing hormone release in ovariectomized estrogen/progesterone-treated rat at 1 ng, sc measured at 30 mins post dose by RIA (reference value: 5.3 +/- 1.5 ng/ml); format: functional
Rattus norvegicus [9] = assay: Induction of luteinizing hormone release in ovariectomized estrogen/progesterone-treated rat at 5 ng, sc measured at 30 mins post dose by RIA (reference value: 5.3 +/- 1.5 ng/ml); format: functional
Rattus norvegicus [10] = assay: Induction of luteinizing hormone release in ovariectomized estrogen/progesterone-treated rat at 1 ng, sc measured at 60 mins post dose by RIA (reference value: 6.0+/- 0.4 ng/ml); format: functional
Rattus norvegicus [11] = assay: Induction of luteinizing hormone release in ovariectomized estrogen/progesterone-treated rat at 5 ng, sc measured at 60 mins post dose by RIA (reference value: 6.0+/- 0.4 ng/ml); format: functional

Compound	Ratio (Rattus norvegicus [1])	Ratio (Rattus norvegicus [2])	also measured
CC(C)C[C@H](NC(=O)[C@@H](Cc1ccccc1)NC(=O)[C@H](Cc1ccc(O)cc1)NC(=O)[C@H](CO)NC(=O)[C@H](Cc1c[nH]c2ccccc12)NC(=O)[C@H](Cc1cnc[nH]1)NC(=O)[C@@H]1CCC(=O)N1)C(=O)N[C@@H](CCCNC(=N)N)C(=O)N1CCC[C@H]1C(=O)NCC(N)=O	10	20	
CC(C)C[C@H](NC(=O)[C@@H](C)NC(=O)[C@H](Cc1ccc(O)cc1)NC(=O)[C@H](CO)NC(=O)[C@H](Cc1c[nH]c2ccccc12)NC(=O)[C@H](Cc1cnc[nH]1)NC(=O)[C@@H]1CCC(=O)N1)C(=O)N[C@@H](CCCNC(=N)N)C(=O)N1CCC[C@H]1C(=O)NCC(N)=O	7	13	
CC(C)C[C@H](NC(=O)[C@@H](CCC(=O)O)NC(=O)[C@H](Cc1ccc(O)cc1)NC(=O)[C@H](CO)NC(=O)[C@H](Cc1c[nH]c2ccccc12)NC(=O)[C@H](Cc1cnc[nH]1)NC(=O)[C@@H]1CCC(=O)N1)C(=O)N[C@@H](CCCNC(=N)N)C(=O)N1CCC[C@H]1C(=O)NCC(N)=O	1.8	1.5	
CC(C)C[C@H](NC(=O)[C@@H](C)N(C)C(=O)[C@H](Cc1ccc(O)cc1)NC(=O)[C@H](CO)NC(=O)[C@H](Cc1c[nH]c2ccccc12)NC(=O)[C@H](Cc1cnc[nH]1)NC(=O)[C@@H]1CCC(=O)N1)C(=O)N[C@@H](CCCNC(=N)N)C(=O)N1CCC[C@H]1C(=O)NCC(N)=O			Activity (Rattus norvegicus [3]): 47.8 ng/mL; Activity (Rattus norvegicus [4]): 22.9 ng/mL; Activity (Rattus norvegicus [5]): 18.6 ng/mL; Activity (Rattus norvegicus [6]): 8.9 ng/mL; Ratio (Rattus norvegicus [7]): 0.1
CCNC(=O)[C@@H]1CCCN1C(=O)[C@H](CCCNC(=N)N)NC(=O)[C@H](CC(C)C)NC(=O)[C@@H](Cc1ccccc1)NC(=O)[C@H](Cc1ccc(O)cc1)NC(=O)[C@H](CO)NC(=O)[C@H](Cc1c[nH]c2ccccc12)NC(=O)[C@H](Cc1cnc[nH]1)NC(=O)[C@@H]1CCC(=O)N1	8	7	
CCNC(=O)[C@@H]1CCCN1C(=O)[C@H](CCCNC(=N)N)NC(=O)[C@H](CC(C)C)NC(=O)[C@@H](Cc1c[nH]c2ccccc12)NC(=O)[C@H](Cc1ccc(O)cc1)NC(=O)[C@H](CO)NC(=O)[C@H](Cc1c[nH]c2ccccc12)NC(=O)[C@H](Cc1c[nH]cn1)NC(=O)[C@@H]1CCC(=O)N1 [DESLORELIN]	7	6	
CC(C)C[C@H](NC(=O)CNC(=O)[C@H](Cc1ccc(O)cc1)NC(=O)[C@H](CO)NC(=O)[C@H](Cc1c[nH]c2ccccc12)NC(=O)[C@H](Cc1cnc[nH]1)NC(=O)[C@@H]1CCC(=O)N1)C(=O)N[C@@H](CCCNC(=N)N)C(=O)N1CCC[C@H]1C(=O)NCC(N)=O [GONADORELIN]			Activity (Rattus norvegicus [8]): 24.5 ng/mL; Activity (Rattus norvegicus [9]): 47 ng/mL; Activity (Rattus norvegicus [10]): 9.6 ng/mL; Activity (Rattus norvegicus [11]): 15.4 ng/mL
CCNC(=O)[C@@H]1CCCN1C(=O)[C@H](CCCNC(=N)N)NC(=O)[C@H](CC(C)C)NC(=O)[C@@H](CC(C)C)NC(=O)[C@H](Cc1ccc(O)cc1)NC(=O)[C@H](CO)NC(=O)[C@H](Cc1c[nH]c2ccccc12)NC(=O)[C@H](Cc1c[nH]cn1)NC(=O)[C@@H]1CCC(=O)N1 [LEUPROLIDE]	15	11	
CC(C)C[C@H](NC(=O)[C@@H](Cc1c[nH]c2ccccc12)NC(=O)[C@H](Cc1ccc(O)cc1)NC(=O)[C@H](CO)NC(=O)[C@H](Cc1c[nH]c2ccccc12)NC(=O)[C@H](Cc1c[nH]cn1)NC(=O)[C@@H]1CCC(=O)N1)C(=O)N[C@@H](CCCNC(=N)N)C(=O)N1CCC[C@H]1C(=O)NCC(N)=O [TRIPTORELIN]	13	21	
